Measured values: PubChem BioAssay AID330 (DTP/NCI, 2004)
Inconclusive results and toxic doses are left out. Peptide text beside a SMILES is read from it. * marks the point of attachment. Cbz = O=C(OCc1ccccc1)*

Tested on: P388 leukemia ip, CD2F1 mice, survival T/C
Assay: NCI In Vivo Anticancer Drug Screen. Data for tumor model P388 Leukemia (intraperitoneal) in CD2F1 (CDF1) mice
Details: endpoint: median survival time, higher = longer survival
In short: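 Mice carrying the transplanted tumor received test compound or vehicle. Survival was recorded in each group, and the value is the treated-group measurement divided by that of the vehicle-treated control group.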

[1] = dose: 50.0 mg/kg/injection, schedule: Q01DX005 (ip), vehicle: Klucel (hydroxypropylcellulose) (HPC)
[2] = dose: 100.0 mg/kg/injection, schedule: Q01DX005 (ip), vehicle: Klucel (hydroxypropylcellulose) (HPC)
[3] = dose: 60.0 mg/kg/injection, schedule: Q01DX005 (ip), vehicle: saline with Tween-80
[4] = dose: 120.0 mg/kg/injection, schedule: Q01DX005 (ip), vehicle: saline with Tween-80
[5] = dose: 240.0 mg/kg/injection, schedule: Q01DX005 (ip), vehicle: saline with Tween-80

For C=C(C)C1(O)c2c(Cl)cccc2C(c2ccccc2)c2cccc(Cl)c21 (stereo unspecified), which T/C (dose: 100.0 mg/kg/injection, schedule: Q01DX001 (ip), vehicle: saline with Tween-80) is on record?
The T/C was 110 % of control.

And the T/C (dose: 200.0 mg/kg/injection, schedule: Q01DX001 (ip), vehicle: saline with Tween-80)?
Its T/C is 107 % of control.

What about the T/C (dose: 400.0 mg/kg/injection, schedule: Q01DX001 (ip), vehicle: saline with Tween-80) of the same compound?
The T/C was 100 % of control.

How did the T/C (dose: 50.0 mg/kg/injection, schedule: Q01DX005 (ip), vehicle: saline with Tween-80) turn out when NC(=O)C1CCCN1C(=O)C(Cc1ccc(O)cc1)NC(=O)OCc1ccccc1 (stereo not drawn) (Cbz-Tyr-Pro-NH2; configuration not given here) was run?
Its T/C is 104 % of control.

What about the T/C (dose: 100.0 mg/kg/injection, schedule: Q01DX005 (ip), vehicle: saline with Tween-80) of the same compound?
Its T/C is 97 % of control.

And the T/C (dose: 200.0 mg/kg/injection, schedule: Q01DX005 (ip), vehicle: saline with Tween-80)?
The T/C was 94 % of control.

Which T/C (dose: 6.25 mg/kg/injection, schedule: Q01DX009 (ip), vehicle: Klucel (hydroxypropylcellulose) (HPC)) does the source give for Cc1ccc2nc(NC(=S)SSC(=S)Nc3nc4ccc(C)cc4s3)sc2c1 here?
The T/C was 107 % of control.

What about the T/C (dose: 12.5 mg/kg/injection, schedule: Q01DX009 (ip), vehicle: Klucel (hydroxypropylcellulose) (HPC)) of the same compound?
The T/C was 108 % of control.

And the T/C (dose: 25.0 mg/kg/injection, schedule: Q01DX009 (ip), vehicle: Klucel (hydroxypropylcellulose) (HPC))?
Its T/C is 94 % of control.

Which results are given for Cc1c(-c2ccc(-c3ccccc3F)cc2)nc2ccc(F)cc2c1C(=O)O?
T/C (dose: 5.62 mg/kg/injection, schedule: Q01DX005 (ip), vehicle: water): 120 % of control; T/C (dose: 11.25 mg/kg/injection, schedule: Q01DX005 (ip), vehicle: water): 121 % of control; T/C (dose: 45.0 mg/kg/injection, schedule: Q01DX005 (ip), vehicle: water): 157 % of control; T/C (dose: 90.0 mg/kg/injection, schedule: Q01DX005 (ip), vehicle: water): 158 % of control

What does the source list for CCCCCN1C(=O)C2C3CCC(O3)C2C1=O (stereo unspecified)?
T/C [1]: 109 % of control; T/C [2]: 109 % of control

What does the source list for CCN(c1ccccc1C(=O)O)S(=O)(=O)c1ccc(C)cc1?
T/C [1]: 104 % of control; T/C [2]: 106 % of control

With COc1cc(OC)c(C2CC(C)(O)Oc3cc4c(cc32)OCO4)c(OC)c1 (stereo unspecified) as the compound, how does the T/C [3] read?
Its T/C is 91 % of control.

What about the T/C [4] of the same compound?
The T/C was 86 % of control.

And the T/C [5]?
Its T/C is 88 % of control.

How did the T/C (dose: 100.0 mg/kg/injection, schedule: Q04DX002 (ip), vehicle: Klucel (hydroxypropylcellulose) (HPC)) turn out when O=c1ccc2cc3c(nc2[nH]1)[nH]c1ccccc13 was run?
The T/C was 101 % of control.

And the T/C (dose: 200.0 mg/kg/injection, schedule: Q04DX002 (ip), vehicle: Klucel (hydroxypropylcellulose) (HPC))?
The T/C was 99 % of control.

What about the T/C (dose: 400.0 mg/kg/injection, schedule: Q04DX002 (ip), vehicle: Klucel (hydroxypropylcellulose) (HPC)) of the same compound?
The T/C was 101 % of control.

With CC1(C)OC2COC3OC(C)(C)OC3(/C=N\NC(=O)c3cc4ccccc4[nH]3)C2O1 (stereo unspecified) as the compound, how does the T/C [1] read?
Its T/C is 98 % of control.

And the T/C [2]?
Its T/C is 104 % of control.

And the T/C (dose: 200.0 mg/kg/injection, schedule: Q01DX005 (ip), vehicle: Klucel (hydroxypropylcellulose) (HPC))?
The T/C was 102 % of control.

c1ccc(-n2cncn2)cc1 was tested. Which T/C (dose: 60.0 mg/kg/injection, schedule: Q01DX005 (ip), vehicle: saline) did it give?
The T/C was 95 % of control.

And the T/C (dose: 120.0 mg/kg/injection, schedule: Q01DX005 (ip), vehicle: saline)?
The T/C was 100 % of control.

What about the T/C (dose: 240.0 mg/kg/injection, schedule: Q01DX005 (ip), vehicle: saline) of the same compound?
Its T/C is 101 % of control.

How did the T/C (dose: 25.0 mg/kg/injection, schedule: Q01DX009 (ip), vehicle: other) turn out when CCOC(=O)C(CN1C(=O)c2ccccc2C1=O)(NC(C)=O)C(=O)OCC was run?
Its T/C is 103 % of control.

And the T/C (dose: 50.0 mg/kg/injection, schedule: Q01DX009 (ip), vehicle: other)?
The T/C was 106 % of control.

What about the T/C (dose: 100.0 mg/kg/injection, schedule: Q01DX009 (ip), vehicle: other) of the same compound?
Its T/C is 103 % of control.

What about the T/C (dose: 200.0 mg/kg/injection, schedule: Q01DX009 (ip), vehicle: other) of the same compound?
The T/C was 114 % of control.

And the T/C (dose: 400.0 mg/kg/injection, schedule: Q01DX009 (ip), vehicle: other)?
Its T/C is 120 % of control.

How did the T/C (dose: 100.0 mg/kg/injection, schedule: Q04DX003 (ip), vehicle: saline) turn out when O=C(NCc1ccncc1)c1ccccc1 was run?
Its T/C is 104 % of control.

What about the T/C (dose: 200.0 mg/kg/injection, schedule: Q04DX003 (ip), vehicle: saline) of the same compound?
Its T/C is 100 % of control.

And the T/C (dose: 400.0 mg/kg/injection, schedule: Q04DX003 (ip), vehicle: saline)?
Its T/C is 106 % of control.

How did the T/C [3] turn out when Cc1cc(Nc2ccc(O)cc2)nc(Nc2ccc(O)cc2)n1 was run?
The T/C was 99 % of control.

What about the T/C [4] of the same compound?
The T/C was 99 % of control.

What about the T/C [5] of the same compound?
The T/C was 103 % of control.

What does the source list for O=S(=O)(c1ccc(Cl)cc1)N(CCCCN(S(=O)(=O)c1ccc(Cl)cc1)S(=O)(=O)c1ccc(Cl)cc1)S(=O)(=O)c1ccc(Cl)cc1?
T/C [3]: 99 % of control; T/C [4]: 93 % of control; T/C [5]: 90 % of control

For Cc1[nH]c2cc(Br)c(Br)cc2c1/C=N/NC(N)=S, which T/C (dose: 50.0 mg/kg/injection, schedule: Q01DX001 (ip), vehicle: Klucel (hydroxypropylcellulose) (HPC)) is on record?
The T/C was 100 % of control.

What about the T/C (dose: 100.0 mg/kg/injection, schedule: Q01DX001 (ip), vehicle: Klucel (hydroxypropylcellulose) (HPC)) of the same compound?
The T/C was 96 % of control.

What about the T/C (dose: 200.0 mg/kg/injection, schedule: Q01DX001 (ip), vehicle: Klucel (hydroxypropylcellulose) (HPC)) of the same compound?
Its T/C is 92 % of control.
